Assay results from ChEMBL document CHEMBL3045867, “Synthesis, characterization, and antimicrobial evaluation of novel naphthalene-based 1,2,4-triazoles” (2012).
Values after ≈ are worked out from the molar mass of the structure shown.

Columns and labels:
Format in all cases: functional
Pseudomonas aeruginosa = experiment: Antibacterial activity against Pseudomonas aeruginosa MTCC 1688 after 24 to 48 hr by serial broth dilution method
Streptococcus pyogenes = experiment: Antibacterial activity against Streptococcus pyogenes MTCC 442 after 24 to 48 hr by serial broth dilution method
Aspergillus niger = experiment: Antifungal activity against Aspergillus niger MTCC 282 after 72 hr; conditions: MTCC 282, 72 h
Escherichia coli = experiment: Antibacterial activity against Escherichia coli MTCC 443 after 24 to 48 hr by serial broth dilution method
Candida albicans = experiment: Antifungal activity against Candida albicans MTCC 227 after 72 hr; conditions: MTCC 227, 72 h
Aspergillus clavatus = experiment: Antifungal activity against Aspergillus clavatus MTCC 1323 after 72 hr; conditions: MTCC 1323, 72 h
Staphylococcus aureus = experiment: Antibacterial activity against Staphylococcus aureus MTCC 96 after 24 to 48 hr by serial broth dilution method

| SMILES | MIC99 (Pseudomonas aeruginosa) | MIC99 (Streptococcus pyogenes) | MIC99 (Aspergillus niger) | MIC99 (Escherichia coli) | MIC99 (Candida albicans) | MIC99 (Aspergillus clavatus) | MIC99 (Staphylococcus aureus) |
| --- | --- | --- | --- | --- | --- | --- | --- |
| O=C(Nn1c(S)nnc1-c1cccc2ccccc12)c1ccccc1 | 50 µg/mL (≈ 144 µM) | 1000 µg/mL (≈ 2890 µM) | 1000 µg/mL (≈ 2890 µM) | 500 µg/mL (≈ 1440 µM) | 1000 µg/mL (≈ 2890 µM) | 1000 µg/mL (≈ 2890 µM) | 500 µg/mL (≈ 1440 µM) |
| CC1(C)S[C@@H]2[C@H](NC(=O)[C@H](N)c3ccccc3)C(=O)N2[C@H]1C(=O)O [AMPICILLIN] | 100 µg/mL (≈ 286 µM) | 100 µg/mL (≈ 286 µM) |  | 100 µg/mL (≈ 286 µM) |  |  | 250 µg/mL (≈ 715 µM) |
| O=C(COc1ccc2ccccc2c1)Nn1c(S)nnc1-c1cccc2ccccc12 | 250 µg/mL (≈ 586 µM) | 500 µg/mL (≈ 1170 µM) | 500 µg/mL (≈ 1170 µM) | 100 µg/mL (≈ 234 µM) | 500 µg/mL (≈ 1170 µM) | 500 µg/mL (≈ 1170 µM) | 250 µg/mL (≈ 586 µM) |
| O=C(Cc1ccccc1)Nn1c(S)nnc1-c1cccc2ccccc12 | 500 µg/mL (≈ 1390 µM) | 200 µg/mL (≈ 555 µM) | 500 µg/mL (≈ 1390 µM) | 500 µg/mL (≈ 1390 µM) | 1000 µg/mL (≈ 2770 µM) | 500 µg/mL (≈ 1390 µM) | 250 µg/mL (≈ 694 µM) |
| O=C(Nn1c(S)nnc1-c1cccc2ccccc12)c1ccccc1O | 1000 µg/mL (≈ 2760 µM) | 500 µg/mL (≈ 1380 µM) | 500 µg/mL (≈ 1380 µM) | 1000 µg/mL (≈ 2760 µM) | 500 µg/mL (≈ 1380 µM) | 200 µg/mL (≈ 552 µM) | 500 µg/mL (≈ 1380 µM) |
| O=C(Nn1c(S)nnc1-c1cccc2ccccc12)c1ccccc1Cl | 100 µg/mL (≈ 263 µM) | 500 µg/mL (≈ 1310 µM) | 100 µg/mL (≈ 263 µM) | 50 µg/mL (≈ 131 µM) | 50 µg/mL (≈ 131 µM) | 250 µg/mL (≈ 656 µM) | 500 µg/mL (≈ 1310 µM) |
| Cc1ccccc1C(=O)Nn1c(S)nnc1-c1cccc2ccccc12 | 100 µg/mL (≈ 277 µM) | 100 µg/mL (≈ 277 µM) | 500 µg/mL (≈ 1390 µM) | 100 µg/mL (≈ 277 µM) | 200 µg/mL (≈ 555 µM) | 100 µg/mL (≈ 277 µM) | 500 µg/mL (≈ 1390 µM) |
| COc1ccccc1C(=O)Nn1c(S)nnc1-c1cccc2ccccc12 | 250 µg/mL (≈ 664 µM) | 500 µg/mL (≈ 1330 µM) | 200 µg/mL (≈ 531 µM) | 100 µg/mL (≈ 266 µM) | 200 µg/mL (≈ 531 µM) | 500 µg/mL (≈ 1330 µM) | 250 µg/mL (≈ 664 µM) |
| COC1=CC(=O)C[C@@H](C)[C@]12Oc1c(Cl)c(OC)cc(OC)c1C2=O [GRISEOFULVIN] |  |  | 100 µg/mL (≈ 283 µM) |  | 500 µg/mL (≈ 1420 µM) | 100 µg/mL (≈ 283 µM) |  |
| O=C(Nn1c(S)nnc1-c1cccc2ccccc12)c1ccc(O)cc1 | 100 µg/mL (≈ 276 µM) | 500 µg/mL (≈ 1380 µM) | 500 µg/mL (≈ 1380 µM) | 250 µg/mL (≈ 690 µM) | 500 µg/mL (≈ 1380 µM) | 500 µg/mL (≈ 1380 µM) | 100 µg/mL (≈ 276 µM) |

Other lines, results leading:

| MIC99 (Pseudomonas aeruginosa) | MIC99 (Streptococcus pyogenes) | MIC99 (Aspergillus niger) | MIC99 (Escherichia coli) | MIC99 (Candida albicans) | MIC99 (Aspergillus clavatus) | MIC99 (Staphylococcus aureus) | SMILES |
| --- | --- | --- | --- | --- | --- | --- | --- |
| 100 µg/mL (≈ 227 µM) | 250 µg/mL (≈ 566 µM) | 100 µg/mL (≈ 227 µM) | 200 µg/mL (≈ 453 µM) | 100 µg/mL (≈ 227 µM) | 50 µg/mL (≈ 113 µM) | 250 µg/mL (≈ 566 µM) | O=C(Nn1c(S)nnc1-c1cccc2ccccc12)c1ccc2cccc([N+](=O)[O-])c2c1 |
| 25 µg/mL (≈ 63.9 µM) | 500 µg/mL (≈ 1280 µM) | 50 µg/mL (≈ 128 µM) | 50 µg/mL (≈ 128 µM) | 50 µg/mL (≈ 128 µM) | 50 µg/mL (≈ 128 µM) | 250 µg/mL (≈ 639 µM) | O=C(Nn1c(S)nnc1-c1cccc2ccccc12)c1ccc([N+](=O)[O-])cc1 |
| 100 µg/mL (≈ 255 µM) | 500 µg/mL (≈ 1280 µM) | 200 µg/mL (≈ 511 µM) | 100 µg/mL (≈ 255 µM) | 200 µg/mL (≈ 511 µM) | 100 µg/mL (≈ 255 µM) | 100 µg/mL (≈ 255 µM) | O=C(Nn1c(S)nnc1-c1cccc2ccccc12)c1cccc([N+](=O)[O-])c1 |
| 250 µg/mL (≈ 656 µM) | 100 µg/mL (≈ 263 µM) | 50 µg/mL (≈ 131 µM) | 25 µg/mL (≈ 65.6 µM) | 50 µg/mL (≈ 131 µM) | 50 µg/mL (≈ 131 µM) | 250 µg/mL (≈ 656 µM) | O=C(Nn1c(S)nnc1-c1cccc2ccccc12)c1cccc(Cl)c1 |
